This assay deals with opfGWT1 expressing yeast. The assay is described as follows: Measurement of antimalarial agent activity using opfGWT1-expressing yeast (growth inhibition, MIC). As to conditions: Saccharomyces cerevisiae, 48 h, read-out: MIC (μg/m1) opfGWT1 […]; minimum concentration at which turbidity (660 nm) was 0.1 or less; SD culture medium, 96 well plate, 30° C. for 2 days; final highest concentration 25 μg/ml. Type of assay: cell-based. On the procedure:
Compounds having antimalarial activity were screened, using the opfGWT1 expressing yeast, which expresses the malaria protozoa GWT1 gene. The opfGWT1 expressing yeast was prepared according to the methods described in Example 1 to Example 3 of WO 2004/048567.
The test compound was serially diluted twice in SD culture medium (Sabouraud-dextrose culture medium) so that the final highest concentration was 25 μg/ml and dispensed into a 96 well plate so as to obtain 50 μl/well. An overnight culture solution of the opfGWT1 expressing yeast diluted to 1/1000 was added therein in the amount of 50 μl/well addition, the plate was incubated at 30° C. for 2 days, then turbidity at 660 nm was measured.

In brackets after ≈: the same amount, converted by molar mass.

For `CC(=O)c1ccc(C(=O)NCc2ccc(Oc3ccccc3)s2)c(N)n1` [Reference Example A-98, 6-Acetyl-2-amino-N-(5-phenoxy-thiophen-2-ylmethyl)-nicotinamide], the MIC was 12.5 µg/mL (≈ 34 µM). In the case of `COCc1ccc(C(=O)NCc2ccc(Oc3cccc(F)c3)s2)c(N)n1` [Reference Example A-123, 2-Amino-N-(5-(3-fluoro-phenoxy)-thiophen-2-ylmethyl)-6-methoxymethyl-nicotinamide], the MIC was 25 µg/mL (≈ 64.5 µM). In the case of `Nc1ncccc1C(=O)NCc1ccc(Oc2cccc(F)c2)s1` [Reference Example A-68, 2-Amino-N-(5-(3-fluoro-phenoxy)-thiophen-2-ylmethyl)-nicotinamide], the MIC turned out to be 12.5 µg/mL (≈ 36.4 µM). Regarding `Nc1ncccc1C(=O)NCc1ccc(Oc2ccc(F)cc2)s1` [Reference Example A-69, 2-Amino-N-(5-(4-fluoro-phenoxy)-thiophen-2-ylmethyl)-nicotinamide], the MIC came to 25 µg/mL (≈ 72.8 µM). In the case of `Nc1ccc(C(=O)NCc2ccc(Oc3ccccc3)s2)c(N)n1` [Reference Example A-54, 2,6-diamino-N-(5-phenoxy-thiophene-2-ylmethyl)-nicotinamide], the MIC was 25 µg/mL (≈ 73.4 µM). In the case of `CCOCCNc1ccc(C(=O)NCc2ccc(Oc3ccccc3)s2)c(N)n1` [Reference Example A-105, 2-Amino-6-(2-ethoxy-ethylamino)-N-(5-phenoxy-thiophen-2-ylmethyl)-nicotinamide], the MIC was determined as 25 µg/mL (≈ 60.6 µM). Turning to `CCCCOc1ccc(CNC(=O)c2ccc(COC)nc2N)cc1` [Reference Example A-188, 2-Amino-N-(4-butoxy-benzyl)-6-methoxymethyl-nicotinamide], the MIC was determined as 6.25 µg/mL (≈ 18.2 µM). Next, `C=Cc1ccc(C(=O)NCc2ccc(Oc3ccccc3)s2)c(N)n1` [Reference Example A-168, 2-Amino-N-(5-phenoxy-thiophen-2-ylmethyl)-6-vinyl-nicotinamide]: 12.5 µg/mL (≈ 35.6 µM); `O=C(NCc1ccc(Oc2cccc(F)c2)s1)c1ccc2ncccc2c1` [Reference Example E-65, Quinoline-6-carboxylic acid (5-(3-fluorophenoxy)thiophen-2-ylmethyl)amide]: 25 µg/mL (≈ 66.1 µM).

For `Nc1ncccc1C(=O)NCc1ccc(Cc2cccc(Cl)c2)o1` [Reference Example A-4, 2-Amino-N-(5-(3-chloro-benzyl)-furan-2-ylmethyl)-nicotinamide], the MIC was 6.25 µg/mL (≈ 18.3 µM). Take `Nc1ncccc1C(=O)NCc1ccc(Cc2cccc(F)c2)o1` [Reference Example A-6, 2-Amino-N-(5-(3-fluoro-benzyl)-furan-2-ylmethyl)-nicotinamide]: the MIC is 25 µg/mL (≈ 76.8 µM). Consider `Cc1cccc(Oc2ccc(CNC(=O)c3cccnc3N)s2)c1` [Reference Example A-64, 2-Amino-N-(5-m-tolyloxy-thiophen-2-ylmethyl)-nicotinamide], for which the MIC stood at 12.5 µg/mL (≈ 36.8 µM). For the compound `Nc1ccc(C(=O)NCc2ccc(OCc3cccc(Cl)c3)cc2)c(N)n1` [Reference Example A-173, 2,6-Diamino-N-(4-(3-chloro-benzyloxy)-benzyl)-nicotinamide], the MIC is 12.5 µg/mL (≈ 32.6 µM). Consider `Nc1ncccc1C(=O)NCc1ccc(Oc2ccccc2)s1` [Reference Example A-67, 2-Amino-N-(5-phenoxy-thiophen-2-ylmethyl)-nicotinamide], for which the MIC amounted to 12.5 µg/mL (≈ 38.4 µM). In the case of `Nc1nc(CCF)ccc1C(=O)NCc1ccc(Oc2ccccc2)s1` [Reference Example A-177, 2-Amino-6-(2-fluoro-ethyl)-N-(5-phenoxy-thiophen-2-ylmethyl)-nicotinamide] it was 25 µg/mL (≈ 67.3 µM); in that of `CCCCOCc1ccc(CNC(=O)c2ccc(COC)nc2N)cc1` [Reference Example A-182], 6.25 µg/mL (≈ 17.5 µM); in that of `Nc1ncccc1C(=O)NCc1cc(Oc2ccccc2)cs1` [Reference Example A-72, 2-Amino-N-(4-phenoxy-thiophen-2-ylmethyl)-nicotinamide], 12.5 µg/mL (≈ 38.4 µM).

With `Nc1ncccc1C(=O)NCc1ccc(Cc2cccc(Cl)c2)s1`, the MIC came to 12.5 µg/mL (≈ 34.9 µM). As to `Nc1ncccc1C(=O)NCc1ccc(Oc2cccc(Cl)c2)s1` [Reference Example A-73, 2-Amino-N-(5-(3-chloro-phenoxy)-thiophen-2-ylmethyl)-nicotinamide], the MIC was 6.25 µg/mL (≈ 17.4 µM).

(Values after patent US20090227799A1 (priority 2004, published 2009).)
